Results on 14 molecules are retold here after PMC5412686 (Biopharmaceutics & Drug Disposition, 2017).

Series [1] in a line: Intrinsic metabolic clearance determined in human liver microsomes. It counts as in vitro ADME. Particulars: pH 7.4.
The conditions of series [2]: Humans, cited from earlier work; for CL: i.v.; for CL / Vss / F: ref Supplemental Table S2; for F: oral bioavailability; for Urinary excretion (f e): excreted unchanged in urine, ref Supplemental Table S1.
For series [3] the following is noted: ref Supplemental Table S1, cited from earlier work; for HBD: number of hydrogen bond donors; for PSA: polar surface area; for log D: octanol/water at pH 7.4.
The conditions of series [4]: cited from earlier work; for F: po.
For series [5] the following is noted: cited from earlier work.
For series [6] the following is noted: Rats, fraction unbound; ref Supplemental Table S1; cited from earlier work.
The next series deals with Caco‐2 cells (TC7 clone). Particulars: Equation 11 from measured P‐Caco2.
For series [7] the following is noted: human, Caco-2, pH 7.4, with cyclosporine A 10 μM.
The mark [8] stands for this setting: Rats, i.v., ref Supplemental Table S2.
Setting [9] is: no medium marked (buffer pH 7.4), ref Supplemental Table S1.
The mark [10] stands for this setting: FaHIF, fasted human intestinal fluid.

Where two headings read alike, the source gives them in different places. Where only a bound is given, the exact number is not on record here.

`COc1ccc([C@@H]2Sc3ccccc3N(CCN(C)C)C(=O)[C@@H]2OC(C)=O)cc1` [Diltiazem] returned a microsomal CLint at 1 μM in series [1] of 35 µL/min/mg. In addition, in series [2], the CL is 48.3 L/h and the Vss was 5.2 L/kg. In series [3], the HBD is 0, the PSA is recorded as 56.5 and the “Base pKa” value is given as 8.1. In addition, the CL in series [4] (setting [8]) was 42 mL/min/kg. In addition, the F in series [4] (rat, in vivo) was 0.06. The “Solubility (Biorelevant media or Buffer, pH 7.4)” value (“Solubility” for short) in series [5] (setting [9]) is given as 0.47 mg/ml.

On to `CC[C@H]1OC(=O)[C@H](C)[C@@H](O[C@H]2C[C@@](C)(OC)[C@@H](O)[C@H](C)O2)[C@H](C)[C@@H](O[C@@H]2O[C@H](C)C[C@H](N(C)C)[C@H]2O)[C@](C)(O)C[C@@H](C)C(=O)[C@H](C)[C@@H](O)[C@]1(C)O` [Erythromycin], for which, in series [2], the CL was 18.73 L/h, the F was 0.21 and the distribution volume (Vss) was 0.60 L/kg. Further, in series [3], the HBD is given as 5, the log distribution coefficient (log D) is reported as 1.16 and the PSA is 203.3. Also, in series [4] (setting [8]), the CL was 105 mL/min/kg. Also, the F in series [4] (rat, in vivo) is reported as 0.14. Besides, the “Solubility” value in series [5] (setting [9]) was 2 mg/ml.

As to `CCC(C)n1ncn(-c2ccc(N3CCN(c4ccc(OCC5COC(Cn6cncn6)(c6ccc(Cl)cc6Cl)O5)cc4)CC3)cc2)c1=O` (centres unmarked) [Itraconazole], in series [2], the “Urinary excretion (f e)” value is recorded as < 1 % of dose, the CL is 22.86 L/h and the F is listed as 0.76. In series [3], the HBD is recorded as 0, the “log D” value is listed as 3.27 and the PSA was 84.7. Besides, the f up in series [6] is reported as 0.009. In addition, the CL in series [4] (setting [8]) was 9.1 mL/min/kg. Moreover, the F in series [4] (rat, in vivo) was 0.35. Also, the “Solubility” value in series [5] (setting [10]) was 0.006 (FaHIF) mg/ml.

In series [1], `COCCc1ccc(OCC(O)CNC(C)C)cc1` (centres unmarked) [Metoprolol] came in with a microsomal CLint at 1 μM of 19 µL/min/mg. In series [2], the CL is 65.34 L/h and the Vss is 5.18 L/kg. Further, in series [3], the HBD is recorded as 2, the “log D” value was 0.16 and the PSA is 55.0. Moreover, the CL in series [4] (setting [8]) is 65.2 mL/min/kg. The “Solubility” value in series [5] (setting [10]) is recorded as 299.8 (FaHIF) mg/ml.

As for `CN1CCN2c3ncccc3Cc3ccccc3C2C1` (centres unmarked) [Mirtazapine], the “Calculated P eff from P‐Caco2” value in the series with Caco‐2 cells (TC7 clone) was 4.0 10^−4 cm/s. The molecule also had a Papp at 2 h, 1 μM in series [7] of 33.2 ×10⁻⁶ cm/s. In addition, in series [1], the intrinsic metabolic clearance (microsomal CLint) at 1 μM worked out at 11 µL/min/mg. In addition, in series [2], the CL was 38.3 L/h, the F is listed as 0.4 and the Vss is 3.52 L/kg. Besides, in series [3], the HBD is reported as 0, the “log D” value was 0.28 and the PSA was 12.3. Besides, the CL in series [4] (setting [8]) was 29.4 mL/min/kg. Also, the F in series [4] (rat, in vivo) is listed as 0.07. The “Solubility” value in series [5] (setting [9]) is given as 0.002 mg/ml.

With `Oc1ccc2c3c1O[C@H]1[C@@H](O)CC[C@@]4(O)[C@@H](C2)N(CC2CCC2)CC[C@]314` [Nalbuphine], in the series with Caco‐2 cells (TC7 clone), the “Calculated P eff from P‐Caco2” value was 3.8 10^−4 cm/s. This molecule also gave an apparent permeability (Papp) at 2 h, 1 μM in series [7] of 29.8 ×10⁻⁶ cm/s. Also, the microsomal CLint at 1 μM in series [1] was < 10 µL/min/mg. Further, in series [2], the CL was 90 L/h and the Vss was 4.63 L/kg. Moreover, in series [3], the HBD is recorded as 3, the log distribution coefficient (log D) is 0.81, the PSA is listed as 78.3 and the “Base pKa” value is given as 10.0. Moreover, the CL in series [4] (setting [8]) was 63 mL/min/kg. Further, in series [5] (setting [9]), the “Solubility” value is given as 35.5 mg/ml.

In the case of `COC(=O)C1=C(C)NC(C)=C(C(=O)OC)C1c1ccccc1[N+](=O)[O-]` [Nifedipine], the “Urinary excretion (f e)” value in series [2] is given as 0 % of dose.

With `COCCOC(=O)C1=C(C)NC(C)=C(C(=O)OC(C)C)C1c1cccc([N+](=O)[O-])c1` (centres unmarked) [Nimodipine], the “Calculated P eff from P‐Caco2” value with Caco‐2 cells (TC7 clone) was 3.3 10^−4 cm/s. In series [7], this molecule came in with a Papp at 2 h, 1 μM of 22.2 ×10⁻⁶ cm/s. Further, the microsomal CLint at 1 μM in series [1] was > 1000 µL/min/mg. For the same molecule, in series [2], the CL is 58.8 L/h, the F was 0.33 and the Vss was 0.94 L/kg. Further, in series [3], the HBD is recorded as 1, the “log D” value is listed as 2.86 and the PSA was 121.6. Also, the CL in series [4] (setting [8]) was 1.5 mL/min/kg. Further, the F in series [4] (rat, in vivo) was 0.22. In addition, in series [5] (setting [9]), the “Solubility” value was 0.024 mg/ml.

As for `COC(=O)C1=C(C)NC(C)=C(C(=O)OCC(C)C)C1c1ccccc1[N+](=O)[O-]` (centres unmarked) [Nisoldipine], the “Calculated P eff from P‐Caco2” value in the series with Caco‐2 cells (TC7 clone) is 5.2 10^−4 cm/s. In addition, in series [7], the Papp at 2 h, 1 μM was found to be 56.7 ×10⁻⁶ cm/s. For the same molecule, in series [1], the intrinsic clearance (microsomal CLint) at 1 μM is > 1000 µL/min/mg. In series [2], the “Urinary excretion (f e)” value is on record as < 1 % of dose, the CL was 50.82 L/h, the F was 0.04 and the Vss is 4.1 L/kg. In series [3], the HBD was 1, the pH-dependent lipophilicity (log D) was 4.96 and the PSA is 110.5. Moreover, the f up in series [6] is on record as 0.009. Also, the CL in series [4] (setting [8]) is 45.8 mL/min/kg. The F in series [4] (rat, in vivo) was 0.03. Also, the “Solubility” value in series [5] (setting [9]) was 0.006 mg/ml.

`CCCc1nn(C)c2c(=O)[nH]c(-c3cc(S(=O)(=O)N4CCN(C)CC4)ccc3OCC)nc12` [Sildenafil]: the “Calculated P eff from P‐Caco2” value in the series on Caco‐2 cells (TC7 clone) is 3.7 10^−4 cm/s. The Papp at 2 h, 1 μM in series [7] is 28.6 ×10⁻⁶ cm/s. The molecule further displayed an intrinsic metabolic clearance (microsomal CLint) at 1 μM in series [1] of 98 µL/min/mg. Moreover, in series [2], the CL is 40.08 L/h and the F is listed as 0.41. Also, in series [3], the HBD is reported as 1, the log distribution coefficient (log D) is on record as 2.45, the PSA is given as 105.2 and the “Base pKa” value was 6.0. Moreover, the CL in series [4] (setting [8]) was 38.5 mL/min/kg. Besides, the F in series [4] (rat, in vivo) was 0.06. In addition, the “Solubility” value in series [5] (setting [9]) is on record as 3.5 mg/ml.

Consider `Cc1nnc2n1-c1ccc(Cl)cc1C(c1ccccc1Cl)=NC2` [Triazolam], for which, in series [2], the “Urinary excretion (f e)” value is given as 2 % of dose, the CL was 12.72 L/h and the F is reported as 0.8. Also, in series [3], the HBD was 0 and the PSA is reported as 33.3. For the same molecule, the f up in series [6] was 0.28. Also, in series [4] (rat, in vivo, iv), the CL was 51.4 mL/min/kg. Besides, the F in series [4] (rat, in vivo) was 0.16. For the same molecule, the “Solubility” value in series [5] (setting [9]) was 0.005 mg/ml.

Take `COc1ccc(C(CN(C)C)C2(O)CCCCC2)cc1` (centres unmarked) [Venlafaxine]: the “Calculated P eff from P‐Caco2” value in the series on Caco‐2 cells (TC7 clone) is given as 4.0 10^−4 cm/s. Besides, the apparent permeability coefficient (Papp) at 2 h, 1 μM in series [7] turned out to be 33.2 ×10⁻⁶ cm/s. Moreover, the intrinsic clearance (microsomal CLint) at 1 μM in series [1] is < 10 µL/min/mg. In series [2], the “Urinary excretion (f e)” value is 4.6 % of dose, the CL was 60.35 L/h and the F is reported as 0.37. In series [3], the HBD is 1, the log distribution coefficient (log D) is given as 0.76 and the PSA is on record as 32.8. For the same molecule, in series [4] (setting [8]), the CL is 64.5 mL/min/kg. Also, the F in series [4] (rat, in vivo) was 0.13.

In the case of `COc1ccc(CCN(C)CCCC(C#N)(c2ccc(OC)c(OC)c2)C(C)C)cc1OC` (centres unmarked) [Verapamil], in series [3], the HBD was 0 and the PSA was 56.3.

For the molecule `CN(C)CCc1c[nH]c2ccc(C[C@H]3COC(=O)N3)cc12` [Zolmitriptan], in series [2], the “Urinary excretion (f e)” value is reported as 8 % of dose, the CL was 43.06 L/h and the F is reported as 0.7. In series [3], the HBD is recorded as 2 and the PSA was 56.8. Besides, the CL in series [4] (setting [8]) is 29.4 mL/min/kg. Moreover, in series [4] (rat, in vivo), the F was 0.41. Further, the “Solubility” value in series [5] (setting [9]) is on record as 20 mg/ml.

The microsomal CLint is the rate of metabolic loss divided by the concentration. A high value points to faster metabolism. By Vss is commonly meant a proportionality between amount in the body and measured concentration, not a real space. In general, log D refers to lipophilicity at a set pH, counting ionised and neutral species. The term Papp denotes a coefficient for how fast a substance crosses the barrier.
